From patent publication US20190308956A1, “PIPERAZINE DERIVATIVES AS ANTIVIRAL AGENTS WITH INCREASED THERAPEUTIC ACTIVITY” (SERVICIO ANDALUZ DE SALUD, priority 2016, published 2019)

What was measured:
A549 cells = test: Cytotoxicity assay (alamarBlue cell viability); type: cell-based, Human
Outline: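 Actively dividing A549 cells exposed to compounds for 48 h, then alamarBlue (1/10th in culture medium) added for a further 4 h. CC50 taken as concentration giving 50% cytotoxicity; selectivity index = CC50/IC50, with IC50 from HAdV infection inhibition.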

HAdV5-GFP [1] = test: Plaque assay, HAdV5-GFP in 293β5 cells; type: cell-based
Outline: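 293β5 cells infected with HAdV5-GFP at 0.06 vp/cell for 2 h at 37° C. Then overlaid with agar/EMEM containing compound (5 to 1 μM stated range; screen run at 10 μM). After 7 days at 37° C., GFP plaques imaged and counted relative to DMSO control.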

HAdV5-GFP [2] = test: Entry assay, HAdV5-GFP in A549 cells (GFP expression); type: cell-based
Description: 1.3. Entry assay. An initial rapid screening was performed using human A549 epithelial cells (3×10^5 cells/well in Corning black wall, clear bottom 96-well plates) infected with HAdV5-GFP (2,000 vp/cell) in the presence of 50 μM of the candidate antiviral compounds. Virus was preincubated with the compounds (individual and mixed) for 45 minutes at 4° C., and then added to cells. A standard infection curve was generated in parallel by infecting cells in the absence of compounds using serial two-fold dilutions of virus. All reactions were done in triplicate. Cells, virus and compounds were incubated for 48 h at 37° C. and 5% CO2. Infection, as measured by HAdV-mediated GFP expression, was analyzed using a Typhoon 9410 imager (GE Healthcare Life Sciences), and quantified with ImageQuantTL (GE Healthcare Life Sciences).

wild-type HAdV5 = test: Virus yield reduction (burst assay, TCID50), HAdV5; type: cell-based
Description: 1.8. Virus yield reduction. The effect of the active compounds on virus production was evaluated in a burst assay A549 cells were infected with wild-type HAdV5 or HAdV16 (MOI 100) in the presence or absence of 50 μM compounds. After 48 h, cells were harvested and subjected to three rounds of freeze/thaw. Serial dilutions of clarified lysates were titrated on A549 cells and TCID50 values were calculated using an endpoint dilution method.46

[3] = tested on: Acinetobacter baumannii strains resistant to colistine; test: Screening of inhibition of bacterial growth at 50 μM; type: cell-based; conditions: 5×10^5 CFU/ml, 18 h; for Screening, growth inhibition Ab 11: strain Ab 11, 50 μM; for Screening, growth inhibition Ab 17: strain Ab 17, 50 μM; for Screening, growth inhibition Ab 24: strain Ab 24, 50 μM; for Screening, growth inhibition Ab 14: strain Ab 14, 50 μM; for Screening, growth inhibition Ab 21R: strain Ab 21R, 50 μM
Excerpt: (§1) All of the strains used were Acinetobacter baumannii strains resistant to colistine: Resistance (R)≥4 Sensibility (S)≤2—All of these strains have been disclosed in Valencia R, Arroyo L A, Conde M, Aldana J M, Torres M J, Fernandez-Cuenca F, et al. Nosocomial outbreak of infection with pan-drug-resistant Acinetobacter baumannii in a tertiary care university hospital. Infection control and hospital epidemiology. 2009; 30(3):257-63. The specific strains used were the following: 1, 10, 11, 14, 16, 17, 19, 20, 21R, 22P, 24, 99 and 113.
Evaluation of the inhibition of the bacterial growth of the 4 families of piperazines derivatives was performed by using a final concentration of 50 μM of each piperazine derivative in a concentration of 5×10^5 CFU/ml of each strain of A. baumannii in 96-well plates.
These plates were incubated for 18 hours at 37° C.

[4] = tested on: Acinetobacter baumannii strains resistant to colistine; test: Minimal inhibitory concentration (MIC), microdilution in MHBII; type: cell-based; conditions: 5×10^5 CFU/ml, 18 h; for CMI (MIC) Ab 11: strain Ab 11, MHBII; for CMI (MIC) Ab 17: strain Ab 17, MHBII; for CMI (MIC) Ab 24: strain Ab 24, MHBII; for CMI (MIC) Ab 14: strain Ab 14, MHBII; for CMI (MIC) Ab 21R: strain Ab 21R, MHBII
Excerpt: as §1
Microdilution in cell medium Mueller Hinton Broth II (MHBII). This technique was carried out solely in those piperazines which presented inhibitory activity in the screening study.
We used decreasing concentrations of each piperazine derivative (from 50 μM -0.05 μM) in a concentration of 5×10^5 CFU/ml of each strain of A. baumannii in 96 well plates. These plates were incubated for 18 hours at a temperature 37° C.

SMILES | CC50 (A549 cells) [µM] | Inhibition assay in plaque (HAdV5-GFP [1]) | Starting Inhibition assay (HAdV5-GFP [2]) | YIELD REDUCTION (wild-type HAdV5) | Screening, growth inhibition Ab 11 [3] [µM] | Screening, growth inhibition Ab 17 [3] [µM] | Screening, growth inhibition Ab 24 [3] [µM] | CMI (MIC) Ab 11 [4] [µM] | CMI (MIC) Ab 17 [4] [µM] | CMI (MIC) Ab 24 [4] [µM] | IC50 (HAdV5-GFP [1]; read-out: IC50 plaque) [µM] | Screening, growth inhibition Ab 14 [3] [µM] | Screening, growth inhibition Ab 21R [3] [µM] | CMI (MIC) Ab 14 [4] [µM] | CMI (MIC) Ab 21R [4] [µM]
CC1CN(C(=O)OC(C)(C)C)CCN1C(=S)Nc1ccc(F)cc1 (stereo not drawn) [Vip 585] | 200 | 92.91 ± 3.82 | 75.54 ± 13.76 | 12.08 ± 2.78 | – | – | – | – | – | – | – | – | – | – | –
CC1CN(C(=O)Cc2ccccc2)CCN1C(=S)Nc1ccc([N+](=O)[O-])cc1 (stereo not drawn) [Vip 628] | 210 | 98.21 ± 3.57 | 60.79 ± 17.31 | 25.59 ± 10.45 | <50 | <50 | <50 | 50 | 25 | 50 | 2.04 | – | – | – | –
CC1CN(C(=O)Cc2ccccc2)CCN1C(=S)Nc1ccc(Cl)cc1 (stereo not drawn) [Vip 629] | 175 | 84.56 ± 15.72 | 59.51 ± 17.45 | – | <50 | <50 | <50 | 25 | 25 | 50 | – | <50 | <50 | 25 | 50
CC1CN(C(=O)Cc2ccccc2)CCN1C(=S)Nc1cc(C(F)(F)F)cc(C(F)(F)F)c1 (stereo not drawn) [Vip 634] | 130 | 99.50 ± 1.58 | 94.46 ± 3.87 | 33.42 ± 10.16 | <50 | <50 | <50 | 6.25 | 3.12 | 6.25 | – | <50 | <50 | 3.12 | 3.12
CC1CN(C(=O)Cc2ccccc2)CCN1C(=S)Nc1ccc(C#N)cc1 (stereo not drawn) [Vip 635] | 175 | 98.36 ± 2.13 | 60.06 ± 17.39 | 18.39 ± 5.44 | <50 | <50 | <50 | 50 | 50 | 50 | – | – | <50 | – | 50
